# Values of other authors as cited in patent publication US9304123B2, “Biomarkers used to detect and monitor neurological autoimmune diseases” (NUtech Ventures, priority 2012, dated 2016).
# Test system: EAE
# Conditions: animal models
compound,measurement,value
CN(C)C(=N)N=C(N)N [Metformin],effect on EAE progression,attenuate EAE progression
